What was measured:
Test in all cases: relative viability (nuclei count vs DMSO), 5 days (fraction); higher = more cells survive
[1] = compound: COc1cc2nc(N3CCCN(C)CC3)nc(NC3CCN(Cc4ccccc4)CC3)c2cc1OC + C[C@@H](Oc1cc(-c2cnn(C3CCNCC3)c2)cnc1N)c1c(Cl)ccc(F)c1Cl [Crizotinib] (partner 1 µM)
How it was run: (§1)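 Nuclei were stained with Hoechst during a one-step fixation (final 0.05% Triton X-100, 1% formaldehyde, 1 ug/ml Hoechst) carried out 5 days after dosing, then counted on 4× images. The cells, lung cancer lines in 1536-well plates, had been dosed by pin tool the day after seeding with one drug alone or a fixed anchor-drug dose plus five library-drug doses (not always all listed) in √10 steps. Relative viability is the nuclei count in treated wells divided by that in vehicle wells, and each value is the median of duplicate plates.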

[2] = compound: COc1cc2nc(N3CCCN(C)CC3)nc(NC3CCN(Cc4ccccc4)CC3)c2cc1OC + CC(=O)c1c(C)c2cnc(Nc3ccc(N4CCNCC4)cn3)nc2n(C2CCCC2)c1=O [Palbociclib] (partner 0.5 µM)
How it was run: as §1

AZD6482 + Vorinostat = compound: Cc1cc([C@@H](C)Nc2ccccc2C(=O)O)c2nc(N3CCOCC3)cc(=O)n2c1 [AZD6482] + O=C(CCCCCCC(=O)Nc1ccccc1)NO [Vorinostat] (partner 1 µM)
How it was run: as §1

AZD6482 + Bortezomib = compound: Cc1cc([C@@H](C)Nc2ccccc2C(=O)O)c2nc(N3CCOCC3)cc(=O)n2c1 [AZD6482] + CC(C)C[C@H](NC(=O)[C@H](Cc1ccccc1)NC(=O)c1cnccn1)B(O)O [Bortezomib] (partner 0.002 µM)
How it was run: as §1

Cell Line	relative viability ([1]; first compound 0.2 µM)	relative viability ([1]; first compound 0.6325 µM)	relative viability ([1]; first compound 2 µM)	relative viability ([1]; first compound 6.325 µM)	relative viability ([2]; first compound 0.2 µM)	relative viability ([2]; first compound 0.6325 µM)	relative viability ([2]; first compound 2 µM)	relative viability ([2]; first compound 6.325 µM)	relative viability (AZD6482 + Vorinostat; first compound 0.08 µM)	relative viability (AZD6482 + Vorinostat; first compound 0.253 µM)	relative viability (AZD6482 + Vorinostat; first compound 0.8 µM)	relative viability (AZD6482 + Vorinostat; first compound 2.53 µM)	relative viability (AZD6482 + Vorinostat; first compound 8 µM)	relative viability (AZD6482 + Bortezomib; first compound 0.08 µM)	relative viability (AZD6482 + Bortezomib; first compound 0.253 µM)	relative viability (AZD6482 + Bortezomib; first compound 0.8 µM)	relative viability (AZD6482 + Bortezomib; first compound 2.53 µM)	relative viability (AZD6482 + Bortezomib; first compound 8 µM)
LXF-289	0.812	0.8	0.824	0.786	0.583	0.603	0.615	0.586	0.814	0.741	0.87	0.729	0.752	0.972	1	1.05	0.845	0.947
NCI-H23	0.417	0.556	0.59	0.546	0.475	0.522	0.521	0.415	0.542	0.516	0.617	0.374	0.407	0.958	0.861	1.29	0.621	0.861
NCI-H322M	0.873	1.01	0.973	0.915	0.468	0.531	0.435	0.481	0.846	0.818	0.812	0.473	0.565	1.18	1.22	1.13	0.795	0.871
NCI-H441	0.656		0.59	0.701	0.191	0.219	0.236	0.207	0.854	0.788	0.741		0.782	0.617	0.481	0.595	0.357	0.449
NCI-H460	0.833	0.878	0.893	0.313	0.101	0.237	0.084	0.0622	0.599	0.797	0.895	0.344	0.594	0.957	0.956	1.17	0.685	0.958
NCI-H520	0.714	0.664	0.852	0.214	0.168	0.259	0.25	0.148	0.599	0.467	0.496	0.273	0.319	0.489	0.223	0.481		0.306
NCI-H647	1.01	0.973	0.968	0.466	0.336	0.457	0.348	0.213	0.63	0.55	0.473	0.41	0.619	0.784		0.777	0.582	0.771
NCI-H650	0.734	0.589	0.841	0.733	0.394	0.307	0.31	0.295	0.464	0.489	0.372	0.256	0.301	0.895		0.927	0.424	0.57
NCI-H661	0.995	0.9	1.24	0.922	0.417	0.429	0.426	0.387	0.794	0.825	0.914	0.736	0.846	0.71	0.608	0.723		0.622
NCI-H727	0.757	0.752	1.13	0.592	0.617	0.656	0.571	0.632	1.1	1.11	1.17		0.96	0.908	0.868	1.06		0.887
NCI-H838	0.81	0.878	0.873	0.828	0.185	0.229	0.213	0.212	0.631	0.701	0.664	0.54	0.538	0.629	0.498	0.793	0.602	0.622
NCI-H1355	1.08	1.17	1.01	0.993	0.404	0.379	0.423	0.386	0.446	0.541	0.674	0.447	0.407	1.06	1.06	1.16	0.874	1.03
NCI-H1437	0.901	0.866	1.02	0.879	0.29	0.319	0.32	0.279	0.955	0.921	0.997	0.738	0.468	0.466	0.385	0.592	0.484	0.374
NCI-H1650	1	0.903	1.2	0.892	0.243	0.448	0.328	0.287	0.512	0.629	0.805	0.437	0.632	0.192		0.188	0.205	0.202
NCI-H1651	0.862	0.849	0.896	0.859	0.518	0.5	0.515	0.522	0.602	0.502	0.56	0.464	0.524	0.918	0.941	0.905	0.809	0.825

Reference: the supplement of paper PMC10307832
